Assay results as given in US20130331345A1, “PUERARIN HYDRATES, PREPARATION METHODS AND USES THEREOF” (priority 2010, published 2013).

Experiments:
[1] = Hygroscopicity test according to the Pharmacopoeia of the People's Republic of China; format: physicochemical; settings: 48 h, 25° C., relative humidity 75%; monohydrate
Protocol: (§1) The sample of the puerarin hydrate above (prepared by method of Example 1) and anhydrous puerarin (anhydrous puerarin was prepared by: drying the hydrate as prepared in Example 1 at 90-105° C. in the presence of phosphorus pentoxide under vacuum for 24-72 hours or more to obtain an anhydrous puerarin, and the water content of anhydrous puerarin was usually lower than 1.0% as measured by Karl Fisher method) were sealed in penicillin bottles to perform accelerated stability test (chromatography conditions: chromatography column: C18 (150 mm×4.6 mm, 5 μm); mobile phase: 0.1% citric acid solution-methanol (75:25); flow rate: 1 ml/min; temperature: room temperature; detection wavelength: 250 nm). […] Hygroscopicity test was performed according to the Pharmacopoeia of the People's Republic of China: about 5 g of anhydrous puerarin and the crystalline hydrate of the present invention were taken, placed in dry watch glasses with constant weight, weighed precisely. Samples were taken separately at 0 h and 48 h of the test at 25° C. and relative humidity of 75%, and hygroscopicity weight gain percentages were calculated.

Long-term stability test = format: physicochemical
[2] = Accelerated stability test (40° C., RH75%), sealed in penicillin bottles; format: physicochemical; settings: accelerated, 40° C.
Protocol: as §1

[3] = system: cerebral ischemia-reperfusion; experiment: Effects on cerebral ischemia-reperfusion in rats (NO, NOS, MDA, SOD in brain tissue); format: in vivo, Wistar male rats; settings: rats after ischemia-reperfusion, 400 mg/kg intragastric twice per day, monohydrate
Protocol: 36 Wistar male rats, body weight 250-300 g, were randomly divided into 3 groups: sham operation group, ischemia-reperfusion group, and the present invention drug group, 12 rats per group. The rats of the present invention drug group were intragastrically administered with physiological saline suspension of puerarin monohydrate (prepared by method of Example 1) in a dose of 400 mg/kg, volume of 2 ml, twice per day, for consecutive 7 days, and cerebral ischemia operation was performed 60 min after the last administration; the rats of sham operation group and the ischemia-reperfusion group were administered separately with isometric physiological saline 2 ml.
The rats were anesthetized with 10% chloral hydrate (3.5 ml/kg) by intraperitoneal injection, fixed at supine position, and molded by a modified Zea Longa suture method referring to document (Journal of Shanghai Jiaotong University (medical Science), 2007, 27(10): 1218-1222); suture was inserted only 10 mm in sham operation group, and the other steps were the same as the model groups. […] After successful modeling, the rats of the present invention drug group were administered twice per day in the same dose as above, while those of the sham operation group and the ischemia-reperfusion group were administered isometric physiological saline 2 ml. Sutures were drawn out 2 hours after modeling, the rats were executed 24 hours after reperfusion, and their brain weights were measured rapidly. 10% brain tissue homogenates were prepared at low temperature with physiological saline, centrifuged under 3000 r/min for 10 min at low temperature, the deposit was discarded, and the supernatant was taken and measured with commercial kits of SOD, MDA, NO, NOS according to their specifications to determine contents or activities of SOD, MDA, NO, NOS.

[4] = listed as The present invention drug
[5] = listed as the present invention drug

Question: For `O=c1c(-c2ccc(O)cc2)coc2c([C@@H]3O[C@H](CO)[C@@H](O)[C@H](O)[C@H]3O)c(O)ccc12` [Sample 1, puerarin monohydrate], which “In comparison with 0 h, weight gain, %” value [1] is on record?
Answer: Its value is 0.12%.

Question: What about the “Marked content (%)” value (Long-term stability test; sampling time 0 month) of the same molecule?
Answer: Its value is 99.5%.

Question: What about the Property (Long-term stability test; sampling time 0 month) of the same molecule?
Answer: The Property was “off-white powder”.

Question: And the “Related substance (%)” value (Long-term stability test; sampling time 0 month)?
Answer: The value was under 2%.

Question: And the “Marked content (%)” value (Long-term stability test; sampling time 3 month)?
Answer: The value was 99.6%.

Question: And the Property (Long-term stability test; sampling time 3 month)?
Answer: Its Property is “off-white powder”.

Question: And the “Related substance (%)” value (Long-term stability test; sampling time 3 month)?
Answer: Its value is under 2%.

Question: What about the “Marked content (%)” value (Long-term stability test; sampling time 6 month) of the same molecule?
Answer: The value was 99.5%.

Question: And the Property (Long-term stability test; sampling time 6 month)?
Answer: The Property was “off-white powder”.

Question: And the “Related substance (%)” value (Long-term stability test; sampling time 6 month)?
Answer: The value was under 2%.

Question: What about the “Marked content (%)” value (Long-term stability test; sampling time 9 month) of the same molecule?
Answer: Its value is 99.4%.

Question: What about the Property (Long-term stability test; sampling time 9 month) of the same molecule?
Answer: The Property was “off-white powder”.

Question: What about the “Related substance (%)” value (Long-term stability test; sampling time 9 month) of the same molecule?
Answer: The value was under 2%.

Question: What about the “Marked content (%)” value (Long-term stability test; sampling time 12 month) of the same molecule?
Answer: Its value is 99.4%.

Question: What about the Property (Long-term stability test; sampling time 12 month) of the same molecule?
Answer: Its Property is “off-white powder”.

Question: And the “Related substance (%)” value (Long-term stability test; sampling time 12 month)?
Answer: Its value is under 2%.

Question: What about the “Marked content (%)” value ([2]; sampling time 0 month) of the same molecule?
Answer: The value was 99.5%.

Question: And the Property ([2]; sampling time 0 month)?
Answer: The Property was “off-white powder”.

Question: And the “Related substance (%)” value ([2]; sampling time 0 month)?
Answer: The value was under 2%.

Question: And the “Marked content (%)” value ([2]; sampling time 1 month)?
Answer: Its value is 99.3%.

Question: And the Property ([2]; sampling time 1 month)?
Answer: The Property was “off-white powder”.

Question: And the “Related substance (%)” value ([2]; sampling time 1 month)?
Answer: Its value is under 2%.

Question: And the “Marked content (%)” value ([2]; sampling time 2 month)?
Answer: Its value is 99.6%.

Question: What about the Property ([2]; sampling time 2 month) of the same molecule?
Answer: Its Property is “off-white powder”.

Question: And the “Related substance (%)” value ([2]; sampling time 2 month)?
Answer: Its value is under 2%.

Question: And the “Marked content (%)” value ([2]; sampling time 3 month)?
Answer: Its value is 99.4%.

Question: And the Property ([2]; sampling time 3 month)?
Answer: The Property was “off-white powder”.

Question: What about the “Related substance (%)” value ([2]; sampling time 3 month) of the same molecule?
Answer: The value was under 2%.

Question: And the “Marked content (%)” value ([2]; sampling time 6 month)?
Answer: Its value is 99.3%.

Question: What about the Property ([2]; sampling time 6 month) of the same molecule?
Answer: The Property was “off-white powder”.

Question: What about the “Related substance (%)” value ([2]; sampling time 6 month) of the same molecule?
Answer: Its value is under 2%.

Question: What about the “MDA in brain tissue” value [3, 4] of the same molecule?
Answer: The value was 2.54 ± 0.57 nmol/mL.

Question: And the “NO in brain tissue” value [3, 4]?
Answer: The value was 26 ± 6.13 µmol/L.

Question: And the “NOS in brain tissue” value [3, 4]?
Answer: Its value is 23 ± 5.22 U/ml.

Question: And the “SOD in brain tissue” value [3, 4]?
Answer: The value was 243 ± 19.66 U/ml.

Question: And the “MDA in brain tissue” value [3, 5]?
Answer: The value was “significantly decreased”.

Question: And the “NO in brain tissue” value [3, 5]?
Answer: The value was “significantly decreased”.

Question: What about the “NOS in brain tissue” value [3, 5] of the same molecule?
Answer: The value was “decreased”.

Question: What about the “SOD in brain tissue” value [3, 5] of the same molecule?
Answer: The value was “increased significantly”.
